The values that follow come from US8114895B2, “Use of bipyridine compound ‘Caerulomycin A’ derivatives and analogs thereof as immunosuppressive agents” (Council of Science and Industrial Research, priority 2005, dated 2012).

Test [1] has as its system Th1 cells (3DO.54.8). Kind of test: Proliferation of Th1 cells. The following applies: anti-CD3 Ab 10 μg/ml; 24 h. The format is cell-based. Here is the method: Th1 cells (1×10^4 cells/well) were stimulated with anti-CD3 Ab (10 μg/ml) and different doses Caerulomycin A. After 24 h, [^3H]-thymidine was added, and its incorporation was measured 8 h later.
For test [2], the system named is calcium dependent pathway. Put plainly: Proliferation by the calcium dependent (PMA+Lonomycin) pathway. The following applies: 48 h. In kind it is cell-based. The procedure:
Cells were seeded at 5×10^4 cells/well in flat-bottom 96-well plates. The various stimuli and Caerulomycin A were added at the initiation of the cultures. After 48 h, [^3H]-thymidine (1 μCi/well) was added, and its incorporation was measured 12 h later.

The conditions of test [3]: Funk and Divekar 1959; cited from earlier work.
In test [4] the test system is J774. Kind of test: Expression of B7-1 and B7-2 on J774. The format is cell-based.
The test system of test [5] is B cells. Put plainly: Secretion of antibodies.
For test [6], the system named is CD4^+ T cells. Kind of test: Proliferation of CD4+ T cells obtained from antigen-primed animals. In kind it is cell-based. The following applies: CD4+ T cells from OVA-FCA injected mice, stimulated with antigen-pulsed γ-irradiated splenocytes. Here is the method:
A single cell suspension of mice splenocytes obtained from OVA-CFA primed mice. The red blood cells were depleted by treatment with hemolytic Gey's solution. The adherent cells were removed by plating onto plastic Petri plates for 2 h at 37° C. and 7% CO2. The non-adherent cells were loaded (1×10^6 cells/ml) onto the nylon wool column and incubated for 90 min at 37° C. After the incubation period, warm RPMI was passed into the column to elute T lymphocytes. The T cells were washed with RPMI and incubated with anti-Mac3 (TIB-168), anti-IA^d (MKD6), anti-dendritic cell (TIB-227), anti-IgM and anti-CD8 Abs for 45 min at 4° C. […] The purity of the cells was analyzed by flow-cytometry of the cells stained with anti-CD3 and CD4 Abs. […]
Examples establishing the role of Caerulomycin A [isolated from a novel species of Actinoalloteichus] in inducing immunosuppression based on the following: • Splenocytes of BALB/c mice were stimulated with either ConA (1 μg/ml and 2 μg/ml) or LPS (5 μg/ml and 10 μg/ml) and were cultured with different concentrations of Caerulomycin A (0.0003-0.1 μg/ml). […] Radioactivity incorporated was measured by liquid scintillation counting. • Antigen ovalbumin (100 μg/ml) emulsified in Freund's complete adjuvant was injected in a group consisting of 5 BALB/c mice. […] Radioactivity incorporated was measured by liquid scintillation. […]

Take `COc1cc(/C=N/O)nc(-c2ccccn2)c1` [Caerulomycin A, (E)-4-methoxy-2,2′-bipyridine-6-carbaldehyde oxime]: in test [1], the “proliferation of Th1 cells” value is “inhibited the proliferation”. In addition, the “proliferation of calcium dependent pathway” value in test [2] is “significantly inhibited the proliferation”. Moreover, in test [3], the antibacterial activity entry is listed as “mild antibacterial activity” and the antifungal activity result was “strong antifungal activity”. Also, in test [4], the “expression of B7-1” value is “no major change” and the “expression of B7-2” value is on record as “increased the expression”. In test [5], the “secretion of IgG1 type of antibodies” value was “inhibited the secretion” and the “secretion of IgG2a type of antibodies” value was “inhibited the secretion”. Further, the “proliferation of antigen stimulated CD4+ T cells” value in test [6] is given as “significantly suppressed the proliferation”.
